Patent publication US20190343908A1, “Therapeutic Combination for the Treatment of Cancer” (Nerium Biotechnology Inc., priority 2011, published 2019)

Key:
[1] = test system: PC3 (human prostate cancer); test: Crystal Violet viability assay, PC3; assay type: cell-based
From the text: (§1) Three different viability assays were chosen to complement each other and yielded results dependent on concentration and cell line: the Methyl Tetrazolium dye assay, the Sulforhodamine B fluorescent dye assay, and the Crystal Violet dye assay.
(§2) The Sulforhodamine B and Crystal Violet assays provide information about protein and were used to complement the Methyl-Tetrazolium dye assay. […] It is used for the quantification of cellular proteins of cultured cells. The assay using Crystal Violet, a dye that binds electrostatically to proteins and stains DNA, provides a reliable, simple assay for measuring viability of cells.
(§3) The Methyl Tetrazolium, Sulforhodamine B, and Crystal Violet assays were used to assess cell viabilities. The incubation times were 24 hours, 48 hours, and 72 hours. The Nerium oleander extract Anvirzel™ (a hot water extract of oleander obtained from Salud Integral, Honduras) was tested in concentrations ranging from 0.01 ng/mL to 10 ng/mL.
(§4) Cells were detached by trypsinization (Trypsin-0.25% EDTA, Invitrogen, 25200-072) during the logarithmic phase of culture growth and plated in 96-well plates (18.000 cells/well) (Corning, Costar 359) in a final volume of 200 μl of medium per well. […] The absorbance was measured after 24 hours, 48 hours, and 72 hours of incubation.
(§5) For the Crystal Violet assay, the medium was removed from the 96-well plates, the plates rinsed with PBS (Sigma, P3813) and then the cells were […] by the addition of 10% formalin (MERCK, 1.04003.2500) for 20 minutes at RT. Formalin was removed and 0.25% aqueous crystal violet (Sigma, HT901), dissolved in water, was added for 10 minutes at RT. Unbound Crystal Violet was rinsed by washing with water and finally 33% acetic acid was added to dissolve the dye.
(§6) The optical density of each plate was measured on a μQuant spectrophotometer and the data were analyzed with Gen5 software (μQuant Biomolecular Spectrophotometer MQX200 and Gen5™ Microplate Data Collection & Analysis software, BioTek® Instruments. Inc, April 2008). Absorbance was measured at 570 nm for all assays and a second wavelength was measured in order to subtract noise. For the Methyl-Tetrazolium assay this second wavelength was 630 nm and for the Sulforhodamine B and Crystal Violet assays it was 690 nm.

[2] = test system: PANC-1 pancreatic cancer cell line; test: Crystal Violet viability assay, PANC-1; assay type: cell-based, human; conditions: for ABSORBANCE: 0.1 μg/mL cisplatin; for CVE 24 h / CVE 48 h / CVE 72 h: Run 1 average
From the text: as §1, §2, §3, §4, §5, §6

SMILES: N.N.[Cl][Pt][Cl] [cisplatin]
- CVE Average ([1]; PC3 Run 2, 48 h, 100 μg/ml CDDP): 0.419
- CVE Average ([1]; PC3 Run 2, 72 h, 0.1 μg/ml CDDP): 0.76
- CVE Average ([1]; PC3 Run 2, 72 h, 1 μg/ml CDDP): 0.284
- CVE Average ([1]; PC3 Run 2, 72 h, 10 μg/ml CDDP): 0.526
- CVE Average ([1]; PC3 Run 2, 72 h, 100 μg/ml CDDP): 0.316
- CVE Average ([1]; PC3 Run 3, 24 h, 0.1 μg/ml CDDP): 0.653
- CVE Average ([1]; PC3 Run 3, 24 h, 1 μg/ml CDDP): 0.551
- CVE Average ([1]; PC3 Run 3, 24 h, 10 μg/ml CDDP): 0.638
- CVE Average ([1]; PC3 Run 3, 24 h, 100 μg/ml CDDP): 0.301
- CVE Average ([1]; PC3 Run 3, 48 h, 0.1 μg/ml CDDP): 0.599
- CVE Average ([1]; PC3 Run 3, 48 h, 1 μg/ml CDDP): 0.4
- CVE Average ([1]; PC3 Run 3, 48 h, 10 μg/ml CDDP): 0.599
- CVE Average ([1]; PC3 Run 3, 48 h, 100 μg/ml CDDP): 0.367
- CVE Average ([1]; PC3 Run 3, 72 h, 0.1 μg/ml CDDP): 0.927
- CVE Average ([1]; PC3 Run 3, 72 h, 1 μg/ml CDDP): 1.001
- CVE Average ([1]; PC3 Run 3, 72 h, 10 μg/ml CDDP): 0.666
- CVE Average ([1]; PC3 Run 3, 72 h, 100 μg/ml CDDP): 0.282
- ABSORBANCE ([2]; PANC-1, 48 h): 0.753
- ABSORBANCE ([2]; PANC-1, 72 h): 0.872
- Average CVE ([2]; PANC-1, Run 2, 24 h, 0.1 μg/ml CDDP): 0.793
- Average CVE ([2]; PANC-1, Run 2, 24 h, 1 μg/ml CDDP): 0.456
- Average CVE ([2]; PANC-1, Run 2, 24 h, 10 μg/ml CDDP): 0.602
- Average CVE ([2]; PANC-1, Run 2, 24 h, 100 μg/ml CDDP): 0.345
- Average CVE ([2]; PANC-1, Run 2, 48 h, 0.1 μg/ml CDDP): 0.575
- Average CVE ([2]; PANC-1, Run 2, 48 h, 1 μg/ml CDDP): 0.249
- Average CVE ([2]; PANC-1, Run 2, 48 h, 10 μg/ml CDDP): 0.33
- Average CVE ([2]; PANC-1, Run 2, 48 h, 100 μg/ml CDDP): 0.323
- Average CVE ([2]; PANC-1, Run 2, 72 h, 0.1 μg/ml CDDP): 0.839
- Average CVE ([2]; PANC-1, Run 2, 72 h, 1 μg/ml CDDP): 0.514
- Average CVE ([2]; PANC-1, Run 2, 72 h, 10 μg/ml CDDP): 0.49
- Average CVE ([2]; PANC-1, Run 2, 72 h, 100 μg/ml CDDP): 0.385
- Average CVE ([2]; PANC-1, Run 3, 24 h, 0.1 μg/ml CDDP): 0.476
- Average CVE ([2]; PANC-1, Run 3, 24 h, 1 μg/ml CDDP): 0.457
- Average CVE ([2]; PANC-1, Run 3, 24 h, 10 μg/ml CDDP): 0.698
- Average CVE ([2]; PANC-1, Run 3, 24 h, 100 μg/ml CDDP): 0.428
- Average CVE ([2]; PANC-1, Run 3, 48 h, 0.1 μg/ml CDDP): 0.753
- Average CVE ([2]; PANC-1, Run 3, 48 h, 1 μg/ml CDDP): 0.395
- Average CVE ([2]; PANC-1, Run 3, 48 h, 10 μg/ml CDDP): 0.218
- Average CVE ([2]; PANC-1, Run 3, 48 h, 100 μg/ml CDDP): 0.18
- Average CVE ([2]; PANC-1, Run 3, 72 h, 0.1 μg/ml CDDP): 0.872
- Average CVE ([2]; PANC-1, Run 3, 72 h, 1 μg/ml CDDP): 0.358
- Average CVE ([2]; PANC-1, Run 3, 72 h, 10 μg/ml CDDP): 0.421
- Average CVE ([2]; PANC-1, Run 3, 72 h, 100 μg/ml CDDP): 0.253
- CVE 24 h ([2]; 0.1 μg/ml CDDP): 0.324
- CVE 48 h ([2]; 0.1 μg/ml CDDP): 0.717
- CVE 72 h ([2]; 0.1 μg/ml CDDP): 0.676
- CVE 24 h ([2]; 1 μg/ml CDDP): 0.125
- CVE 48 h ([2]; 1 μg/ml CDDP): 0.429
- CVE 72 h ([2]; 1 μg/ml CDDP): 0.262
- CVE 24 h ([2]; 10 μg/ml CDDP): 0.191
- CVE 48 h ([2]; 10 μg/ml CDDP): 0.466
- CVE 72 h ([2]; 10 μg/ml CDDP): 0.337
- CVE 24 h ([2]; 100 μg/ml CDDP): 0.153
- CVE 48 h ([2]; 100 μg/ml CDDP): 0.381
- CVE 72 h ([2]; 100 μg/ml CDDP): 0.28
